Experimental data as given in US11839683B2, “Method of rapidly achieving therapeutic concentrations of triptans for treatment of migraines” (EMERGEX USA CORPORATION, priority 2016, dated 2023).
Read-outs that look alike come from different tables or passages of the source.

Key:
migraine = details: cited from earlier work
clinical = details: both, human, in vivo; for AUC(0-inf): AUCinf
Procedure: The final treatment administered was 3.8 mg on a 10 cm^2 patch using an applicator with 0.52 Joule of application energy in the intracutaneous microneedle system described herein. The products tested were:
This was a single-center, open-label, randomized five-way crossover study (Part 1) followed by a sequential study of two additional treatments (Parts 2 and 3). After obtaining informed consent and establishing eligibility, each subject received each of the seven study treatments once, followed by in-clinic monitoring and extensive blood sample collection for pharmacokinetic analysis. […] Plasma samples from the initial dosing days were sent to the analytical laboratory for analysis, and tolerability for each of the dose levels was summarized. […] During Part 3, subjects received a single 3.8 mg patch (applied with a 0.52 J applicator) and also completed identical procedures to the previous dosing days. After completion of the seven dosing days, subjects were assessed one final time and dismissed from the study.
Twenty subjects were enrolled in the study, 10 males and 10 females. The subjects mean age was 29 years±3.5 years with a mean BMI of 24.4±3.5.
PK parameters were summarized by treatment group using descriptive statistics (arithmetic means, standard deviations, coefficients of variation, sample size, minimum, maximum, and median).
Graphs of apparent dose linearity and proportionality of PK parameters (AUCt, AUCinf and Cmax) were compiled.

[1] = In vitro dissolution, USP Paddle over Disk apparatus (USP apparatus 5); assay type: physicochemical; details: M207 1.9 mg patch
Procedure: In vitro dissolution of […] 1.9 mg patches were evaluated using standard USP Paddle over Disk apparatus (USP apparatus 5) with Distek […] 6-position dissolution tester. The paddle height was set at 25 mm above patch and rotated at 50 RPM. An USP vessel was filled with degassed 500 mL PBS dissolution medium and the temperature was controlled at 32° C. A full patch assembly containing the coated patch adhered to the center of an inner ring and then attached to an outer ring was inserted along the vessel wall into the vessel with the coated microprojections facing upright. […] […] patches stored at room temperature and at 40° C./75% relative humidity for 10 months were evaluated.

[2] = 10 mg oral, Seaber1997, cited from earlier work
[3] = NASAL 2.5 mg, 1 hour, Charlesworth et al, 2003
[4] = NASAL 2.5 mg, 2 hour, Charlesworth et al, 2003
[5] = NASAL 2.5 mg, 4 hour, Charlesworth et al, 2003
[6] = ODT 2.5 mg, 1 hour, Dowson et al, 2002
[7] = ODT 2.5 mg, 2 hour, Dowson et al, 2002
[8] = TABLET 2.5 mg, 1 hour, Pascual et al, 2000
[9] = TABLET 2.5 mg, 1 hour, Steiner et al, 2003
[10] = TABLET 2.5 mg, 2 hour, Pascual et al, 2000
[11] = TABLET 2.5 mg, 2 hour, Steiner et al, 2003
[12] = TABLET 5 mg, 1 hour, Dahlof et al 1998
[13] = TABLET 5 mg, 1 hour, Geraud et al, 2000
[14] = TABLET 5 mg, 2 hour, Dahlof et al 1998
[15] = TABLET 5 mg, 2 hour, Geraud et al, 2000
[16] = TABLET 5 mg, 4 hour, Geraud et al, 2000
[17] = TABLET 10 mg, 1 hour, Dahlof et al 1998
[18] = TABLET 10 mg, 2 hour, Dahlof et al 1998

Tmax, Mean (SD) (clinical): 17.10 (11.82)
Tmax, Median (clinical): 17.5 min
t1/2, Mean (SD) (clinical): 91.70 (18.7)
t1/2, Median (clinical): 96.2 min
AUC(0-t) (clinical; 0.48 mg, AUC2 hrs, Mean (SD)): 2.11 ng·h/mL
AUC(0-t) (clinical; 0.48 mg, AUC2 hrs, Median): 2.11 ng·h/mL
AUC(0-inf) (clinical; 0.48 mg, Mean (SD)): 3.81 ng·h/mL
AUC(0-inf) (clinical; 0.48 mg, Median): 3.78 ng·h/mL
AUC(0-t) (clinical; 0.48 mg, AUCt, Mean (SD)): 2.81 ng·h/mL
AUC(0-t) (clinical; 0.48 mg, AUCt, Median): 2.78 ng·h/mL
Cmax (clinical; 0.48 mg, Mean (SD)): 1.84 ng/mL
Cmax (clinical; 0.48 mg, Median): 1.8 ng/mL
Tmax (clinical; 0.48 mg, Tmax, Mean (SD)): 17.3 min
Tmax (clinical; 0.48 mg, Tmax, Median): 20 min
half-life (clinical; 0.48 mg, t1/2, Mean (SD)): 69.1 min
half-life (clinical; 0.48 mg, t1/2, Median): 64.6 min
AUCinf, Median (clinical; 1.9 mg): 14.5 ng·h/mL
AUC(0-t) (clinical; 1.9 mg, AUC2 hrs, Mean (SD)): 7.36 ng·h/mL
AUC(0-t) (clinical; 1.9 mg, AUC2 hrs, Median): 7.75 ng·h/mL
AUC(0-inf) (clinical; 1.9 mg, Mean (SD)): 14.1 ng·h/mL
AUC(0-t) (clinical; 1.9 mg, AUCt, Mean (SD)): 12.3 ng·h/mL
AUC(0-t) (clinical; 1.9 mg, AUCt, Median): 12.7 ng·h/mL
Cmax (clinical; 1.9 mg, Mean (SD)): 6.76 ng/mL
Cmax (clinical; 1.9 mg, Median): 6.4 ng/mL
Tmax (clinical; 1.9 mg, Tmax, Mean (SD)): 17.9 min
Tmax (clinical; 1.9 mg, Tmax, Median): 20 min
half-life (clinical; 1.9 mg, t1/2, Mean (SD)): 87.8 min
half-life (clinical; 1.9 mg, t1/2, Median): 84.7 min
t1/2, Mean (SD) (clinical; 3.8 mg): 91.00 (18.80)
AUC(0-t) (clinical; 3.8 mg, AUC2 hrs, Mean (SD)): 19.3 ng·h/mL
AUC(0-t) (clinical; 3.8 mg, AUC2 hrs, Median): 18.4 ng·h/mL
AUC(0-inf) (clinical; 3.8 mg, Mean (SD)): 33.8 ng·h/mL
AUC(0-inf) (clinical; 3.8 mg, Median): 32.2 ng·h/mL
AUC(0-t) (clinical; 3.8 mg, AUCt, Mean (SD)): 31.6 ng·h/mL
AUC(0-t) (clinical; 3.8 mg, AUCt, Median): 29.9 ng·h/mL
Cmax (clinical; 3.8 mg, Mean (SD)): 22.6 ng/mL
Cmax (clinical; 3.8 mg, Median): 19.9 ng/mL
Tmax (clinical; 3.8 mg, Tmax, Mean (SD)): 16.1 min
Tmax (clinical; 3.8 mg, Tmax, Median): 15 min
half-life (clinical; 3.8 mg, t1/2, Median): 87.2 min
Tmax (clinical; Tmax, Mean (SD)): 18.4 min
Tmax (clinical; Tmax, Median): 20 min
Tmax (clinical; mean Tmax): 16.1 to 18.4 min
Cmax (clinical; po, 2.5 mg, Median): 3.7 ng/mL
half-life (clinical; t1/2, Mean (SD)): 77.2 min
half-life (clinical; t1/2, Median): 82 min
Percent Dissolution (% D) ([1]; E-beam irradiated, stored at 40° C./75% RH for 10 months, 0 s): 0%
Percent Dissolution (% D) ([1]; E-beam irradiated, stored at 40° C./75% RH for 10 months, 20 s): 5-10%
Percent Dissolution (% D) ([1]; E-beam irradiated, stored at 40° C./75% RH for 10 months, 40 s): 10-50%
Percent Dissolution (% D) ([1]; E-beam irradiated, stored at 40° C./75% RH for 10 months, 60 s): 50-100%
Percent Dissolution (% D) ([1]; E-beam irradiated, stored at 40° C./75% RH for 10 months, 80 s): 100%
Percent Dissolution (% D) ([1]; E-beam irradiated, stored at 40° C./75% RH for 10 months, 100 s): 100%
Percent Dissolution (% D) ([1]; E-beam irradiated, stored at RT for 10 months, 0 s): 0%
Percent Dissolution (% D) ([1]; E-beam irradiated, stored at RT for 10 months, 20 s): 60-80%
Percent Dissolution (% D) ([1]; E-beam irradiated, stored at RT for 10 months, 40 s): 90-100%
Percent Dissolution (% D) ([1]; E-beam irradiated, stored at RT for 10 months, 60 s): 100%
Percent Dissolution (% D) ([1]; E-beam irradiated, stored at RT for 10 months, 80 s): 100%
Percent Dissolution (% D) ([1]; E-beam irradiated, stored at RT for 10 months, 100 s): 100%
Percent Dissolution (% D) ([1]; non-irradiated, stored at 40° C./75% RH for 10 months, 0 s): 0%
Percent Dissolution (% D) ([1]; non-irradiated, stored at 40° C./75% RH for 10 months, 20 s): 0%
Percent Dissolution (% D) ([1]; non-irradiated, stored at 40° C./75% RH for 10 months, 40 s): 10-40%
Percent Dissolution (% D) ([1]; non-irradiated, stored at 40° C./75% RH for 10 months, 60 s): 90-100%
Percent Dissolution (% D) ([1]; non-irradiated, stored at 40° C./75% RH for 10 months, 80 s): 100%
Percent Dissolution (% D) ([1]; non-irradiated, stored at 40° C./75% RH for 10 months, 100 s): 100%
SMILES: CN(C)CCc1c[nH]c2ccc(C[C@H]3COC(=O)N3)cc12 [Zolmitriptan, zolmitriptan]
% PAIN FREE (migraine; [3]): 10.6%
% PAIN RELIEF (migraine; [3]): 40.2%
% PAIN FREE (migraine; [4]): 21.0%
% PAIN RELIEF (migraine; [4]): 55.4%
% PAIN FREE (migraine; [5]): 38.4%
% PAIN RELIEF (migraine; [5]): 63.4%
% PAIN FREE (migraine; [6]): 7.8%
% PAIN RELIEF (migraine; [6]): 45.0%
% PAIN FREE (migraine; [7]): 27.0%
% PAIN RELIEF (migraine; [7]): 63.0%
% PAIN FREE (migraine; ODT 2.5 mg, 4 hour, Dowson et al, 2002): 37.0%
% PAIN FREE (migraine; [8]): 10.4%
% PAIN RELIEF (migraine; [8]): 35.3%
% PAIN FREE (migraine; [9]): 5.7%
% PAIN RELIEF (migraine; [9]): 25.1%
% PAIN FREE (migraine; [10]): 35.6%
% PAIN RELIEF (migraine; [10]): 66.8%
% PAIN FREE (migraine; [11]): 26.3%
% PAIN RELIEF (migraine; [11]): 59.6%
% PAIN RELIEF (migraine; TABLET 2.5 mg, 4 hour, Steiner et al, 2003): 25.1%
% PAIN FREE (migraine; [12]): 10.0%
% PAIN RELIEF (migraine; [12]): 44.0%
% PAIN FREE (migraine; [13]): 7.8%
% PAIN RELIEF (migraine; [13]): 34.2%
% PAIN FREE (migraine; [14]): 39.0%
% PAIN RELIEF (migraine; [14]): 66.0%
% PAIN FREE (migraine; [15]): 29.3%
% PAIN RELIEF (migraine; [15]): 58.7%
% PAIN FREE (migraine; [16]): 54.6%
% PAIN RELIEF (migraine; [16]): 80.5%
% PAIN FREE (migraine; [17]): 9.0%
% PAIN RELIEF (migraine; [17]): 40.0%
% PAIN FREE (migraine; [18]): 39.0%
% PAIN RELIEF (migraine; [18]): 71.0%
pain freedom at 2 hours (migraine; lowest oral dose): 29%
pain relief at 2 hours (migraine; lowest oral dose): 62%
AUC0-last ([2]; (F)): 108.6 ng·h/mL
Cmax ([2]; (F)): 20.9 ng/mL
AUC0-last ([2]; (M)): 84.4 ng·h/mL
Cmax ([2]; (M)): 16.6 ng/mL
